Assay results published in patent US8298513B2, “Hexatriene-β-carbonyl compound” (Osaka University, priority 2007, dated 2012).

Key:
[1] = biological target: T1, human serum albumin (HSA) (Homo sapiens, UniProt P02768); experiment: Labeling of human serum albumin (HSA), fluorescence spectrum of the reaction product; conditions: phosphate buffer pH 7.4, 40° C. for 1 hour; 420 nm excitation light
Protocol: (§1) HSA was dissolved in a phosphate buffer (0.1 M, pH 7.4) to adjust the concentration to 5.0×10^−5 M. 20 μl of a phosphate buffer (0.1 M, pH 7.4) was added to 200 μl of the solution for dilution, and the mixture was pre-incubated at 40° C. for 5 minutes. A 1,4-dioxane (20 μl) solution of Compound 50 (50 μg, 0.1 μmol) was added to the mixture, and the mixture was incubated at 40° C. for 1 hour. 300 μl of 1% acetic acid was added to the reaction solution to quench the reaction, and the reaction solution was purified by gel filtration and lyophilized.
as §1, with “buffer solution” for “buffer”, “Compound 56” for “Compound 50”

[2] = biological target: T1, human serum albumin (HSA); experiment: Labeling of human serum albumin (HSA) with Compound 8, 57Co incorporation, gamma ray counting; conditions: room temperature 30 minutes, PBS, gamma ray count
Protocol: HSA (0.5 mg, 7.5 nmol was dissolved in a PBS buffer solution (1.5 ml) to prepare a 5 μM HSA solution. 320 μl (1.6 nmol) of the HSA solution was introduced into each of 3 Eppendorf tubes. 1.2 μl (40 nmol), 2.3 μl (80 nmol) and 11.8 μl (0.4 μmol) of a DMF solution (3.38×10^−2M) of Compound 8 described above were added to the respective Eppendorf tubes. 160 μl (0.8 nmol) of the 5 μM HSA solution was added to each of the Eppendorf tubes, and 11.8 μl (0.4 μmol) of a DMF solution (3.38×10^−2M) of Compound 8 described above was added to each tube. The reaction mixtures all were left to stand at room temperature for 30 minutes. Purification was performed using a filter with a 30000 molecular weight cut off manufactured by Millipore, followed by concentration. The protein concentration in the contents of each Eppendorf tube was measured, 5 μl of the contents of each Eppendorf tube were added to other Eppendorf tubes, and a 0.25 M ammonium acetate buffer solution (15 μl) and a 400 μM ^57Co solution (10 μl) were added thereto. The reaction mixtures were incubated at 41° C. for 3 hours. 10 μl of a 0.01 M 1,4,7,10-tetraazacyclododecane-1,4,7,10-tetraacetic acid (DOTA) solution was added to each reaction mixture, and incubation was performed at 41° C. for 10 minutes. […] The silica gel plates were cut in half lengthwise, and gamma rays were counted with a gamma ray counter using the plates.

anti-GFP antibody = experiment: Labeling of anti-GFP antibody with Compound 8, GFP fluorescence measurement after immune precipitation; conditions: 10 to 1250 equivalents, room temperature 10 minutes; GFP fluorescence excitation 395 nm, emission 509 nm
Protocol: To a PBS buffer solution (81 μl) was added 27 μl of an anti-GFP antibody (20 μg/μl, PBS buffer solution, manufactured by Nacalai Tesque, Inc.) for dilution. The diluted anti-GFP solution was added to 4 Eppendorf tubes each in an amount of 3.3 μM, 8 μl, 2.6×10^−11 mol, and Compound 8 was added in a proportion of 10 equivalents (24 μM, 5 μl, 2.6×10^−10 mol), 50 equivalents (0.12 mM, 5 μl, 1.3×10^−9 mol), 250 equivalents (0.61 mM, 5 μl, 6.6×10^−9 mol) and 1250 equivalents (12 mM, 2.7 μl, 3.3×10^−8 mol) relative to the anti-GFP antibody. The mires were left to stand for 10 minutes at room temperature, and then a GFP antigen (cultured from Escherichia coli, PBS buffer solution, 1000 μl) was added and reacted at 4° C. for 1 hour. Thereafter, Protein G (500 μg, manufactured by GE Healthcare Ltd.) was added to the mixtures and left to stand at the same temperature for 30 minutes. Then, labeled anti-GFP (Compound 24) was purified by subjecting the mixtures to immune precipitation. GFP fluorescence measurement (excitation: 395 nm, emission: 509 nm) was performed on each anti-GFP.

[3] = PET imaging of the biodistribution of 68Ga-DOTA-labeled somatostatin in a rat; type: in vivo, rat (Wistar rat); conditions: tail vein, given as 68Ga-DOTA-labeled somatostatin (Compound 41), accumulated 3 to 7 minutes after administration
Protocol: A DMF solution (40 μl) of Compound 8 produced in Example 3 described above was added to a solution of somatostatin (0.17 mg, 0.10 μmol) in Otsuka distilled water (154 μl) and put into a vortex generator. The reaction mixture was left to stand at room temperature for 30 minutes and then lyophilized, thereby giving the titled Compound 9.
A 1 N hydrochloric acid solution (400 μl) of ^68GaCl3 eluted from a ^68Ga/^68Ge generator was purified, neutralized with aqueous 4 N NaOH and then added to Compound 9 described above. After incubation at 40° C. for 10 minutes, it was injected into a rat (Wistar rat 8W, male, 235 g) (1.68 mCi). Propofol was administered continuously at a rate of […] into the tail vein of the rat for tranquilization, and a PET tracer was administered into the tail vein of the rat.

T1 sequence (P02768 25-609): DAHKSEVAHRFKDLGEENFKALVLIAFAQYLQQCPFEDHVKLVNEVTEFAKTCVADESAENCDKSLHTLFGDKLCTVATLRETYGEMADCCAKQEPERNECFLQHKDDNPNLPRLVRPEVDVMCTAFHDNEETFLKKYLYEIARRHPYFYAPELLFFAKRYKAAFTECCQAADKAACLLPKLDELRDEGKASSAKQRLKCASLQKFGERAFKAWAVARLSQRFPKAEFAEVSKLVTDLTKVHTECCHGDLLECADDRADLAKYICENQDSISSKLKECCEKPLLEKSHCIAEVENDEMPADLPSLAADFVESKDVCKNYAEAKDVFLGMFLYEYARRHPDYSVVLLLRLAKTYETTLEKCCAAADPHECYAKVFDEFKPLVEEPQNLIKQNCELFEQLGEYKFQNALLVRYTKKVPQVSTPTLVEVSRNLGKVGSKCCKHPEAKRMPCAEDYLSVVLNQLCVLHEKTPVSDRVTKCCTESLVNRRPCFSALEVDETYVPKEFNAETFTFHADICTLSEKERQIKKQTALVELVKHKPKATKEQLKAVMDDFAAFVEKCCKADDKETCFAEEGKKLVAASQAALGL

## CCN(CC)c1ccc2cc(C(=O)NCCOCCOC(=O)C(/C=C/c3ccc(NC(=O)CCCCCNc4ccc([N+](=O)[O-])c5nonc45)cc3)=C/C=O)c(=O)oc2c1 [Compound 56, 2-(2-(7-diethylaminocoumarin)-3-carbonylaminoethoxy)ethyl (E,E)-4-oxo-2-((6-(N-(7-nitrobenz-2-oxa-1,3-diazol-4-yl)amino)hexanamide)styryl)but-2-enoate]
[1]
  fluorescence of the reaction product with HSA: intense fluorescence was observed near 460 nm

## CCN(CC)c1ccc2cc(C(=O)NCCOCCOC(=O)C(/C=C/c3ccccc3)=C/C=O)c(=O)oc2c1 [Compound 50, 2-(2-(7-diethylaminocoumarin)-3-carbonylaminoethoxy)ethyl (E,E)-4-oxo-2-styrylbut-2-enoate]
[1]
  fluorescence of the reaction product with HSA: intense fluorescence was observed near 460 nm

## CCOC(=O)C(/C=C/c1ccc(NC(=O)CNC(=O)CN2CCN(CC(=O)O)CCN(CC(=O)O)CCN(CC(=O)O)CC2)cc1)=C/C=O [Compound 8, 10-(2-(2-(4-((1E,3E)-3-ethoxycarbonyl-5-oxopenta-1,3-dienyl)phenylamino)-2-oxoethylamino)-2-oxoethyl)-1,4,7,10-tetraazacyclododecane-1,4,7-triacetic acid]
[2]
  labeling reaction with HSA (incorporation into HSA, FIG. 1): promptly reacts with somatostatin
anti-GFP antibody
  labeling reaction with anti-GFP antibody (incorporation into antibody, FIG. 2): promptly reacts with the anti-GFP antibody

## C[C@H](N)C(=O)NCC(=O)N[C@H]1CSSC[C@@H](C(=O)O)NC(=O)[C@H](CO)NC(=O)[C@H]([C@@H](C)O)NC(=O)[C@H](Cc2ccccc2)NC(=O)[C@H]([C@@H](C)O)NC(=O)[C@H](CCCCN)NC(=O)[C@H](Cc2c[nH]c3ccccc23)NC(=O)[C@H](Cc2ccccc2)NC(=O)[C@H](Cc2ccccc2)NC(=O)[C@H](CC(N)=O)NC(=O)[C@H](CCCCN)NC1=O [somatostatin]
[3]
  distribution in the living body (PET image, FIG. 3): distributed across the heart of the rat
